Reference: patent publication US8829067B2, “Polymerizable compositions with initiators containing several Ge atoms” (Ivoclar Vivadent AG, priority 2008, dated 2014)
“And” between values parts separate entries of the source, which are not always exact repeats. Equal values may be shown once.

How the values were obtained:
[1] = UV-VIS absorption of the photoinitiators; type: physicochemical; conditions: for long-wave absorption maximum (λmax): UV-VIS; for extinction coefficient ε: at λmax
Description: The photoinitiator di-Ge according to the invention with a long-wave absorption maximum of 400.5 nm has an extinction coefficient ε=3260 dm^2/mol which is thus more than twice that of benzoyltrimethylgermane mono-Ge (ε=1461 dm^2/mol), which leads to an improvement in photopolymerization activity. Compared with the Norrish type II photoinitiator camphorquinone widely used in the dental field, the extinction coefficient of which ε at λmax of 468 nm is only 380 dm^2/mol and which moreover requires an additional reducing agent, in most cases amine, for effective radical formation, the absorption maximum of di-Ge is clearly on a shorter wavelength and thus fades very well when irradiated.

[2] = background statement; cited from earlier work

Structure (SMILES)	long-wave absorption maximum (λmax) [1]	extinction coefficient ε [1]	absorption maximum wavelength [2]
CC12CCC(C(=O)C1=O)C2(C)C (stereo not shown) [camphorquinone]	468 nm	380 dm^2/mol	468 nm
[CH3][Ge]([CH3])([CH3])[C](=O)c1ccc(OCCCCCCOc2ccc([C](=O)[Ge]([CH3])([CH3])[CH3])cc2)cc1 [di-Ge, 1,6-bis[4-(trimethylgermylcarbonyl)phenoxy]hexane]	400.5 nm	3260 dm^2/mol	–
[CH3][Ge]([CH3])([CH3])[C](=O)c1ccccc1 [mono-Ge, benzoyltrimethylgermanium]	411.5 nm	1374 dm^2/mol and 1461 dm^2/mol	–
